SMILES strings stand for the structures. Where only a bound is given, the exact number is not on record here.

Assay in all cases: Dose response test, growth in 96-well plates
Common to all, as to assay type: cell-based, Chlorella fusca

One experiment concerns Cf WT. Particulars: Cf WT; 2-fold dilutions from 100 ppm. Here is the method: (§1) Dose response tests with B5U were set-up in 96-well, flat bottomed plates. 200 μl medium was used in each well. 2 μl of 6 day old culture was added to each well, then 2 μl of DMSO or dilution of test compound were added to respective wells. 2-fold dilutions starting at 100 ppm were used per well. Plates were incubated at 25° C., 50 μmol/m^2/s, 16 hour photoperiod.
(§2) This was assessed by a visual inspection of growth in the 96-well plate. The inhibitor concentration at which no growth is observed is then defined as the LD.
(§3) Starting dose was 100 ppm and decreasing with 2-fold dilutions with C. fusca wt, the five HST mutants and the 10 compounds to which the wt is sensitive. Plates were incubated at 25° C., 50 μmol/m2/s, 16 hour photoperiod.

The test system of the next experiment is Cf-496-15. Particulars: Cf-496-15 (T277N); 2-fold dilutions from 100 ppm. As to the method: as §1, §2, §3
A further experiment has as its system Cf-496-19. To be noted: Cf-496-19 (F275I); 2-fold dilutions from 100 ppm. As to the method:
as §1, §2, §3

Another experiment deals with Cf-496-28. Particulars: Cf-496-28 (V276A); 2-fold dilutions from 100 ppm. As to the method:
as §1, §2, §3

Another experiment concerns Cf-496-8. To be noted: Cf-496-8 (M278L_F279I); 2-fold dilutions from 100 ppm. As to the method:
as §1, §2, §3

In a further experiment the test system is Cf-496-94. Particulars: Cf-496-94 (F275L); 2-fold dilutions from 100 ppm. Here is the method:
as §1, §2, §3

On to `Cc1nn(C)c(=O)c(-c2c(F)ccc(Cl)c2CCc2ccccc2C(F)(F)F)c1O` [B5m, 4-[3-chloro-6-fluoro-2-[2-[2-(trifluoromethyl)phenyl]ethyl]phenyl]-5-hydroxy-2,6-dimethyl-pyridazin-3-one], for which the “dose response to HST inhibiting compounds” value is 12.5 ppm with Cf WT; greater than 100 ppm in the experiment on Cf-496-15; greater than 100 ppm in the experiment with Cf-496-19; greater than 100 ppm in the experiment on Cf-496-28; greater than 100 ppm in the experiment on Cf-496-8; greater than 100 ppm in the experiment on Cf-496-94.

For `Cc1nn(C)c(=O)c(-c2c(F)ccc(Cl)c2CCc2ccc(F)cc2)c1OC(=O)C(C)C` [B5p, [5-[3-chloro-6-fluoro-2-[2-(4-fluorophenyl)ethyl]phenyl]-1,3-dimethyl-6-oxo-pyridazin-4-yl]2-methylpropanoate], the “dose response to HST inhibiting compounds” value with Cf WT was 25 ppm; in the experiment on Cf-496-15, greater than 100 ppm; in the experiment with Cf-496-19, greater than 100 ppm; in the experiment with Cf-496-28, greater than 100 ppm; with Cf-496-8, greater than 100 ppm; with Cf-496-94, greater than 100 ppm.

These data come from patent publication US20250304990A1, “HERBICIDE RESISTANCE” (SYNGENTA CROP PROTECTION AG, priority 2021, published 2025).
